Laboratory results reported in the kinase profiling compilation of Christmann-Franck et al. (2016).

Legend:
Test in all cases: KINOMEscan competition binding
Settings in all cases: compound 10.0 µM
MAP3K11 (human) = MAP3K11 (human) (UniProt Q16584)
RIOK3 (human) = RIOK3 (human) (UniProt O14730)
MAPK9 (human) = MAPK9 (human) (UniProt P45984)
MAPK1 (human) = MAPK1 (human) (UniProt P28482)
MAPK4 (human) = MAPK4 (human) (UniProt P31152)
DAPK1 (human) = DAPK1 (human) (UniProt P53355)
LATS2 (human) = LATS2 (human) (UniProt Q9NRM7)
PRKD1 (human) = PRKD1 (human) (UniProt Q15139)
PTK2B (human) = PTK2B (human) (UniProt Q14289)
DAPK2 (human) = DAPK2 (human) (UniProt Q9UIK4)
MAP4K4 (human) = MAP4K4 (human) (UniProt O95819)
CDC2L2 (human) = CDC2L2 (human) (UniProt Q9UQ88)
TNK1 (human) = TNK1 (human) (UniProt Q13470)
Chain of TNK1 (human) (Q13470 whole entry, looked up): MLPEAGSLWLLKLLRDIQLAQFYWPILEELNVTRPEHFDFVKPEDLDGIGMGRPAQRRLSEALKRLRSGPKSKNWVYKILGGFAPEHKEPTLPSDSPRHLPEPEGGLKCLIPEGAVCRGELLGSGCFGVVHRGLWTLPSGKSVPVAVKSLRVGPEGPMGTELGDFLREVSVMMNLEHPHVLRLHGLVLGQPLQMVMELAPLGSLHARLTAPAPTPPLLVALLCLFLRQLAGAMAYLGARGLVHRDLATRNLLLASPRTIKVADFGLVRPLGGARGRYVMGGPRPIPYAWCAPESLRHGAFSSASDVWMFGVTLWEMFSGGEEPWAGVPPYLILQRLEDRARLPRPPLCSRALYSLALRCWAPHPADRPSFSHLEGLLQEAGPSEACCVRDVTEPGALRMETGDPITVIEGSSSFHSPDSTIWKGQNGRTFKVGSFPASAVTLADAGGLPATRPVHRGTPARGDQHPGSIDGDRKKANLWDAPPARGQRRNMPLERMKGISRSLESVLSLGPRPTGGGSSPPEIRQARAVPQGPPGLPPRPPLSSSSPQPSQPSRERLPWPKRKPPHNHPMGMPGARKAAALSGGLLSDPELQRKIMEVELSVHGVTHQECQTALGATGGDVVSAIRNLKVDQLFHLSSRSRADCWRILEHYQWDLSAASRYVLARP

ACVR2B (human) = ACVR2B (human) (UniProt Q13705)
Chain of ACVR2B (human) (Q13705 whole entry, looked up): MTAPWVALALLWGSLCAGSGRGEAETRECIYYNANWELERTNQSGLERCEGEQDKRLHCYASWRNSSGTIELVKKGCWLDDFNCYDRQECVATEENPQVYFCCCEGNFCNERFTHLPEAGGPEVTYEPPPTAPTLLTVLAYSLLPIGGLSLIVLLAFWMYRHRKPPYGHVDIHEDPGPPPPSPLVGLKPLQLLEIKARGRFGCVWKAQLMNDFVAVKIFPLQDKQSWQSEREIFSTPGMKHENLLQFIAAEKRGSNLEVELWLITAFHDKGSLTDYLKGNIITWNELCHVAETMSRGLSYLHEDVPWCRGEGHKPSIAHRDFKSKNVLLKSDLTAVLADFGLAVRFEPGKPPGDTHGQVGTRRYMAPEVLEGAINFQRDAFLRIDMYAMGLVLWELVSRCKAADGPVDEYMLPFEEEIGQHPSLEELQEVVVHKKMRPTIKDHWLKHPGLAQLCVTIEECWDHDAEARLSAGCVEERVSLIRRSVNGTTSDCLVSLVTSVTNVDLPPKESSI

[1] = molecular target: JAK1 JH1 catalytic (human) (UniProt P23458)
RIOK1 (human) = RIOK1 (human) (UniProt Q9BRS2)
CAMK2G (human) = CAMK2G (human) (UniProt Q13555)
Chain of CAMK2G (human) (Q13555 whole entry, looked up): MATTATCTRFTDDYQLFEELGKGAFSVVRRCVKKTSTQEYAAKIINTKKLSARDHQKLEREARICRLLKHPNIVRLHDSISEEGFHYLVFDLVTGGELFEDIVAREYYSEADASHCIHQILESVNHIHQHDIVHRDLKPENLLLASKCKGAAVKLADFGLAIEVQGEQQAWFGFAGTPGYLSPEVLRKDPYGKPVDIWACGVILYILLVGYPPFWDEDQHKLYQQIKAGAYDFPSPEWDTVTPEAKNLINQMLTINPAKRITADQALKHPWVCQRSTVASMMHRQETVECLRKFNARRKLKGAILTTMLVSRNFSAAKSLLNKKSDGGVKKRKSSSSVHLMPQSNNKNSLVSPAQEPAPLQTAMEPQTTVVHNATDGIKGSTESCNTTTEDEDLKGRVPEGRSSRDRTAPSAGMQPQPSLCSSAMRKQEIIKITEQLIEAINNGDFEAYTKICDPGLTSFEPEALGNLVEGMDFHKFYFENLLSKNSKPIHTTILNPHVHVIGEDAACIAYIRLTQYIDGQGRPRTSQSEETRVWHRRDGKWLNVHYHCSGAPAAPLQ

LTK (human) = LTK (human) (UniProt P29376)
PAK1 (human) = PAK1 (human) (UniProt Q13153)
STK10 (human) = STK10 (human) (UniProt O94804)
TGFBR2 (human) = TGFBR2 (human) (UniProt P37173)
CDK9 (human) = CDK9 (human) (UniProt P50750)
Chain of CDK9 (human) (P50750 whole entry, looked up): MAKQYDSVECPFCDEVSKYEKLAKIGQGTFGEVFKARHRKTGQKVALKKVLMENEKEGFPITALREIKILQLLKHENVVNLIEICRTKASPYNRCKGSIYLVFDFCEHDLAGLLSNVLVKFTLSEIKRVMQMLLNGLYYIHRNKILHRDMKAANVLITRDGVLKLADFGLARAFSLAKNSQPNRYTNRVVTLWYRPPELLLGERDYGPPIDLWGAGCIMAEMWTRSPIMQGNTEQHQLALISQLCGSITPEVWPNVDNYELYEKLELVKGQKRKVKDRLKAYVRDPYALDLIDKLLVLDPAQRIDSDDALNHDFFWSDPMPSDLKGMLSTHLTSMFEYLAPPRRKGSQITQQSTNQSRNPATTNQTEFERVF

RIPK4 (human) = RIPK4 (human) (UniProt P57078)
PAK6 (human) = PAK6 (human) (UniProt Q9NQU5)
RPS6KA3 KD1 (human) = RPS6KA3 KD1 (human) (UniProt P51812)
Chain of RPS6KA3 KD1 (human) (P51812 whole entry, looked up): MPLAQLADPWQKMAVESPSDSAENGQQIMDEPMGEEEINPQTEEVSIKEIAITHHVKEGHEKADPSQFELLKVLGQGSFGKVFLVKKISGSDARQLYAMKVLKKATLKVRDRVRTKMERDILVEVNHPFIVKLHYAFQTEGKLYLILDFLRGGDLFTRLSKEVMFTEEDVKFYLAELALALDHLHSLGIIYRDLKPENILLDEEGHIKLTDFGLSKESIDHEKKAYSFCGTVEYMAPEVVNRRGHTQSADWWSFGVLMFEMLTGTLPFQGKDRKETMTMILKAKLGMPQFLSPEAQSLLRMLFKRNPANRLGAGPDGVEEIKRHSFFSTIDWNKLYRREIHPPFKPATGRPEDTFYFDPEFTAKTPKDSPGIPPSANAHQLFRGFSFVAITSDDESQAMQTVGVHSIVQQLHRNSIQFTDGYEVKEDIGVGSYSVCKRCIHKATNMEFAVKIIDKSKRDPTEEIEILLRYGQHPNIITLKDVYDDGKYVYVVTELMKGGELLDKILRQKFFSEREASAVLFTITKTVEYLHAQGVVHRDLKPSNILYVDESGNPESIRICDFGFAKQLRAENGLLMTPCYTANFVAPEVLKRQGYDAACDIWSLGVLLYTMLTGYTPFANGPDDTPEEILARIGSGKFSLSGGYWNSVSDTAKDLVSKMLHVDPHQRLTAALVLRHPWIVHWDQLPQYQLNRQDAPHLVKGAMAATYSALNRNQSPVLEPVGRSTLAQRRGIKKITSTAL

MAP3K5 (human) = MAP3K5 (human) (UniProt Q99683)
Chain of MAP3K5 (human) (Q99683 whole entry, looked up): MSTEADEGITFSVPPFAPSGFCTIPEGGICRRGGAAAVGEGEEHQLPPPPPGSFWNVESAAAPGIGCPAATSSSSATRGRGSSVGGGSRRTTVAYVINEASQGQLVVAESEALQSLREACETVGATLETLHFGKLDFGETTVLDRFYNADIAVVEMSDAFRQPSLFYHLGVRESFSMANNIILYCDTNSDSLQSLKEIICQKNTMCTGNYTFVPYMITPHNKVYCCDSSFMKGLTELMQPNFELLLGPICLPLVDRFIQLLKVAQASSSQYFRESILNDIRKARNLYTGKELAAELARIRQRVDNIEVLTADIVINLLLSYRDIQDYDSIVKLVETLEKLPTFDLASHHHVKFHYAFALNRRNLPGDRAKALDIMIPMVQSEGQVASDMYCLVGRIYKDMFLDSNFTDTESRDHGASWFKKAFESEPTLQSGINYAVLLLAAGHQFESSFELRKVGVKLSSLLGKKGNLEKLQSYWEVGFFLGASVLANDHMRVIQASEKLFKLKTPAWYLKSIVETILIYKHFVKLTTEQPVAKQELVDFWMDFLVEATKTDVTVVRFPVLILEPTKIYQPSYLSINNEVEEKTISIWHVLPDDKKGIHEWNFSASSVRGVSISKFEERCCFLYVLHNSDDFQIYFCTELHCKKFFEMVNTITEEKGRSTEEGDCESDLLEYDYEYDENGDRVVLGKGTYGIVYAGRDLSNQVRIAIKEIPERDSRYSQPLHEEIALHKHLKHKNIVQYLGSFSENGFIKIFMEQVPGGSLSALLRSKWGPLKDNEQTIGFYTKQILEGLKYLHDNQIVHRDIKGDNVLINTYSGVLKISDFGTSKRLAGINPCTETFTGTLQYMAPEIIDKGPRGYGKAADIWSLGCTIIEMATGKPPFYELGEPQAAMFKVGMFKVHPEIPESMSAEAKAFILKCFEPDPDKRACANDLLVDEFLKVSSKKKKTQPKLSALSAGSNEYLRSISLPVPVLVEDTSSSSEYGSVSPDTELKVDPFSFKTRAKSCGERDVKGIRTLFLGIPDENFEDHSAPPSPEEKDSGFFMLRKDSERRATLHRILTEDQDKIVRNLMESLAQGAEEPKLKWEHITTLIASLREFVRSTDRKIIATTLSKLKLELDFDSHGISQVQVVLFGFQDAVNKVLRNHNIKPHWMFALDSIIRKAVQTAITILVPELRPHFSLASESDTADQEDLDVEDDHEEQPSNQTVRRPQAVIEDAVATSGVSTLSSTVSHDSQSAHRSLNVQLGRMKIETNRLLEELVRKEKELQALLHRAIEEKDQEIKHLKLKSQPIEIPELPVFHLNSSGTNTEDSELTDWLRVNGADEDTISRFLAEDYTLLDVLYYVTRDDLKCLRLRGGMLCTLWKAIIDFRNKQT

RPS6KA6 KD2 (human) = RPS6KA6 KD2 (human) (UniProt Q9UK32)
STK25 (human) = STK25 (human) (UniProt O00506)
CSNK1G1 (human) = CSNK1G1 (human) (UniProt Q9HCP0)
FRK (human) = FRK (human) (UniProt P42685)
CDK3 (human) = CDK3 (human) (UniProt Q00526)
CSNK1G3 (human) = CSNK1G3 (human) (UniProt Q9Y6M4)
Chain of CSNK1G3 (human) (Q9Y6M4 whole entry, looked up): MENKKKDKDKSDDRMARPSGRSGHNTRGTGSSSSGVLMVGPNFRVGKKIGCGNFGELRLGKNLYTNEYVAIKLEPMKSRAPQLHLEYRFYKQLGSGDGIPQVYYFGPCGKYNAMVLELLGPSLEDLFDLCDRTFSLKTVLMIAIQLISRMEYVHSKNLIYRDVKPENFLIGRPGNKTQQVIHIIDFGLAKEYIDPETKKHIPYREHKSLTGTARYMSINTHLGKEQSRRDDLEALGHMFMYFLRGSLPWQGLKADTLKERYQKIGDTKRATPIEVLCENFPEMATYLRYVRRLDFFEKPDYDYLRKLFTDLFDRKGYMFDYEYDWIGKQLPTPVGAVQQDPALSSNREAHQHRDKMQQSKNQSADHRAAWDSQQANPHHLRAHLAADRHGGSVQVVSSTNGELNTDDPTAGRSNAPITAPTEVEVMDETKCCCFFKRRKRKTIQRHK

TXK (human) = TXK (human) (UniProt P42681)
MINK1 (human) = MINK1 (human) (UniProt Q8N4C8)
ADCK3 (human) = ADCK3 (human) (UniProt Q8NI60)
STK32B (human) = STK32B (human) (UniProt Q9NY57)
CHEK2 (human) = CHEK2 (human) (UniProt O96017)
EPHA4 (human) = EPHA4 (human) (UniProt P54764)
EPHA5 (human) = EPHA5 (human) (UniProt P54756)
CIT (human) = CIT (human) (UniProt O14578)

Chain of MAPK1 (human) (P28482 whole entry, looked up): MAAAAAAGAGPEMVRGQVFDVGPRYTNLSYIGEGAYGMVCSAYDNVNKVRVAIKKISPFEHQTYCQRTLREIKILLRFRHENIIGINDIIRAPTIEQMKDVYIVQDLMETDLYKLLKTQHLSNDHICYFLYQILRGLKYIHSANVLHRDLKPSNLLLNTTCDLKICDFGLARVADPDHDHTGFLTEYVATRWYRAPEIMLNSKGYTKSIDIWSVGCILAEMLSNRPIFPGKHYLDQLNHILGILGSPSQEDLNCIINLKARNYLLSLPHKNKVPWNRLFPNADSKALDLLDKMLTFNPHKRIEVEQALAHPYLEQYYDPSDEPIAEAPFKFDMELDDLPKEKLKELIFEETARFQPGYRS

For `C=CC(=O)Nc1cc(NC(=O)c2ccc(C)c(NC(=O)c3ccno3)c2)cc(C(F)(F)F)c1`, which kinase still bound, per cent of control (MAP3K11 (human)) is on record?
Its kinase still bound, per cent of control is 100%.

And the kinase still bound, per cent of control (RIOK3 (human))?
The kinase still bound, per cent of control was 76%.

What about the kinase still bound, per cent of control (MAPK9 (human)) of the same molecule?
The kinase still bound, per cent of control was 94%.

What about the kinase still bound, per cent of control (MAPK1 (human)) of the same molecule?
Its kinase still bound, per cent of control is 100%.

What about the kinase still bound, per cent of control (MAPK4 (human)) of the same molecule?
Its kinase still bound, per cent of control is 100%.

What about the kinase still bound, per cent of control (DAPK1 (human)) of the same molecule?
Its kinase still bound, per cent of control is 80%.

And the kinase still bound, per cent of control (LATS2 (human))?
The kinase still bound, per cent of control was 88%.

What about the kinase still bound, per cent of control (PRKD1 (human)) of the same molecule?
The kinase still bound, per cent of control was 100%.

And the kinase still bound, per cent of control (PTK2B (human))?
Its kinase still bound, per cent of control is 91%.

And the kinase still bound, per cent of control (DAPK2 (human))?
The kinase still bound, per cent of control was 97%.

And the kinase still bound, per cent of control (MAP4K4 (human))?
Its kinase still bound, per cent of control is 88%.

What about the kinase still bound, per cent of control (CDC2L2 (human)) of the same molecule?
Its kinase still bound, per cent of control is 94%.

What about the kinase still bound, per cent of control (TNK1 (human)) of the same molecule?
Its kinase still bound, per cent of control is 85%.

And the kinase still bound, per cent of control (ACVR2B (human))?
Its kinase still bound, per cent of control is 100%.

And the kinase still bound, per cent of control [1]?
The kinase still bound, per cent of control was 100%.

And the kinase still bound, per cent of control (RIOK1 (human))?
Its kinase still bound, per cent of control is 100%.

What about the kinase still bound, per cent of control (CAMK2G (human)) of the same molecule?
Its kinase still bound, per cent of control is 89%.

And the kinase still bound, per cent of control (LTK (human))?
Its kinase still bound, per cent of control is 89%.

What about the kinase still bound, per cent of control (PAK1 (human)) of the same molecule?
The kinase still bound, per cent of control was 79%.

And the kinase still bound, per cent of control (STK10 (human))?
The kinase still bound, per cent of control was 100%.

What about the kinase still bound, per cent of control (TGFBR2 (human)) of the same molecule?
Its kinase still bound, per cent of control is 93%.

And the kinase still bound, per cent of control (CDK9 (human))?
The kinase still bound, per cent of control was 100%.

What about the kinase still bound, per cent of control (RIPK4 (human)) of the same molecule?
Its kinase still bound, per cent of control is 86%.

And the kinase still bound, per cent of control (PAK6 (human))?
The kinase still bound, per cent of control was 100%.

And the kinase still bound, per cent of control (RPS6KA3 KD1 (human))?
Its kinase still bound, per cent of control is 96%.

And the kinase still bound, per cent of control (MAP3K5 (human))?
The kinase still bound, per cent of control was 100%.

And the kinase still bound, per cent of control (RPS6KA6 KD2 (human))?
Its kinase still bound, per cent of control is 79%.

What about the kinase still bound, per cent of control (STK25 (human)) of the same molecule?
The kinase still bound, per cent of control was 100%.

And the kinase still bound, per cent of control (CSNK1G1 (human))?
The kinase still bound, per cent of control was 100%.

And the kinase still bound, per cent of control (FRK (human))?
Its kinase still bound, per cent of control is 12%.

And the kinase still bound, per cent of control (CDK3 (human))?
Its kinase still bound, per cent of control is 97%.

And the kinase still bound, per cent of control (CSNK1G3 (human))?
Its kinase still bound, per cent of control is 96%.

And the kinase still bound, per cent of control (TXK (human))?
Its kinase still bound, per cent of control is 93%.

What about the kinase still bound, per cent of control (MINK1 (human)) of the same molecule?
The kinase still bound, per cent of control was 84%.

What about the kinase still bound, per cent of control (ADCK3 (human)) of the same molecule?
The kinase still bound, per cent of control was 100%.

And the kinase still bound, per cent of control (STK32B (human))?
Its kinase still bound, per cent of control is 100%.

And the kinase still bound, per cent of control (CHEK2 (human))?
Its kinase still bound, per cent of control is 96%.

And the kinase still bound, per cent of control (EPHA4 (human))?
Its kinase still bound, per cent of control is 48%.

What about the kinase still bound, per cent of control (EPHA5 (human)) of the same molecule?
Its kinase still bound, per cent of control is 80%.

What about the kinase still bound, per cent of control (CIT (human)) of the same molecule?
The kinase still bound, per cent of control was 97%.

With `C=CC(=O)Nc1cccc(Nc2nc(N[C@H]3CC[C@H](N(C)C)CC3)nc3c2ncn3C(C)C)c1` as the molecule, how does the kinase still bound, per cent of control (MAP3K11 (human)) read?
The kinase still bound, per cent of control was 24%.

And the kinase still bound, per cent of control (RIOK3 (human))?
Its kinase still bound, per cent of control is 34%.

And the kinase still bound, per cent of control (MAPK9 (human))?
The kinase still bound, per cent of control was 100%.

And the kinase still bound, per cent of control (MAPK1 (human))?
The kinase still bound, per cent of control was 93%.

What about the kinase still bound, per cent of control (MAPK4 (human)) of the same molecule?
The kinase still bound, per cent of control was 100%.

And the kinase still bound, per cent of control (DAPK1 (human))?
Its kinase still bound, per cent of control is 29%.

What about the kinase still bound, per cent of control (LATS2 (human)) of the same molecule?
Its kinase still bound, per cent of control is 70%.

What about the kinase still bound, per cent of control (PRKD1 (human)) of the same molecule?
Its kinase still bound, per cent of control is 100%.

And the kinase still bound, per cent of control (PTK2B (human))?
The kinase still bound, per cent of control was 51%.

And the kinase still bound, per cent of control (DAPK2 (human))?
Its kinase still bound, per cent of control is 37%.

What about the kinase still bound, per cent of control (MAP4K4 (human)) of the same molecule?
The kinase still bound, per cent of control was 53%.

And the kinase still bound, per cent of control (CDC2L2 (human))?
The kinase still bound, per cent of control was 98%.

What about the kinase still bound, per cent of control (TNK1 (human)) of the same molecule?
The kinase still bound, per cent of control was 100%.

And the kinase still bound, per cent of control (ACVR2B (human))?
Its kinase still bound, per cent of control is 91%.

What about the kinase still bound, per cent of control [1] of the same molecule?
Its kinase still bound, per cent of control is 88%.

What about the kinase still bound, per cent of control (RIOK1 (human)) of the same molecule?
The kinase still bound, per cent of control was 31%.

What about the kinase still bound, per cent of control (CAMK2G (human)) of the same molecule?
Its kinase still bound, per cent of control is 76%.

What about the kinase still bound, per cent of control (LTK (human)) of the same molecule?
Its kinase still bound, per cent of control is 88%.

What about the kinase still bound, per cent of control (PAK1 (human)) of the same molecule?
The kinase still bound, per cent of control was 78%.

What about the kinase still bound, per cent of control (STK10 (human)) of the same molecule?
Its kinase still bound, per cent of control is 72%.

And the kinase still bound, per cent of control (TGFBR2 (human))?
Its kinase still bound, per cent of control is 100%.

And the kinase still bound, per cent of control (CDK9 (human))?
The kinase still bound, per cent of control was 100%.

And the kinase still bound, per cent of control (RIPK4 (human))?
Its kinase still bound, per cent of control is 72%.

And the kinase still bound, per cent of control (PAK6 (human))?
The kinase still bound, per cent of control was 47%.

What about the kinase still bound, per cent of control (RPS6KA3 KD1 (human)) of the same molecule?
The kinase still bound, per cent of control was 3.6%.

And the kinase still bound, per cent of control (MAP3K5 (human))?
Its kinase still bound, per cent of control is 100%.

And the kinase still bound, per cent of control (RPS6KA6 KD2 (human))?
The kinase still bound, per cent of control was 100%.

What about the kinase still bound, per cent of control (STK25 (human)) of the same molecule?
Its kinase still bound, per cent of control is 89%.

What about the kinase still bound, per cent of control (CSNK1G1 (human)) of the same molecule?
Its kinase still bound, per cent of control is 28%.

What about the kinase still bound, per cent of control (FRK (human)) of the same molecule?
Its kinase still bound, per cent of control is 53%.

And the kinase still bound, per cent of control (CDK3 (human))?
The kinase still bound, per cent of control was 95%.

And the kinase still bound, per cent of control (CSNK1G3 (human))?
Its kinase still bound, per cent of control is 8.2%.

What about the kinase still bound, per cent of control (TXK (human)) of the same molecule?
The kinase still bound, per cent of control was 48%.

And the kinase still bound, per cent of control (MINK1 (human))?
The kinase still bound, per cent of control was 27%.

And the kinase still bound, per cent of control (ADCK3 (human))?
Its kinase still bound, per cent of control is 87%.

And the kinase still bound, per cent of control (STK32B (human))?
The kinase still bound, per cent of control was 100%.

And the kinase still bound, per cent of control (CHEK2 (human))?
Its kinase still bound, per cent of control is 60%.

And the kinase still bound, per cent of control (EPHA4 (human))?
The kinase still bound, per cent of control was 64%.

And the kinase still bound, per cent of control (EPHA5 (human))?
Its kinase still bound, per cent of control is 76%.

And the kinase still bound, per cent of control (CIT (human))?
Its kinase still bound, per cent of control is 50%.
